Reference: patent publication US12721894B2, “Method and system for applying pulsed electric fields with high uniformity using charged ring structures” (The Phantom Laboratory, Incorporated, priority 2020, dated 2026)

Key:
[1] = test system: voltage gated sodium channel (VGSC); experiment: Immunohistochemical labeling of VGSC in 4T1 homografts; format: in vivo, mouse; settings: 1 and 2 days after treating with paclitaxel; FIG. 8
Text: FIGS. 5A-5C depict the immunohistochemical labeling of voltage gated sodium channel (VGSC) in 4T1 homografts before (FIG. 5A) and after (FIG. 5B) a single 2-day treatment with TOL. Nuclei are counterstained with DRAQ5™ fluorescent probe. […] Low power calibration bar in FIG. 5B is 50 μm and the high power calibration bar in the inset is 25 μm. […] This observation may explain, in part the loss of TOL's efficacy that is observed after the first 2 days of treatment.
FIGS. 8A-8D depicts the immunohistochemical labeling of VGSC in 4T1 homografts before (FIG. 8A), 1 (FIG. 8B) and 2 days (FIG. 8C) after treating with paclitaxel. Nuclei are counterstained with DRAQ5. […] Low power calibration bar in FIG. 8B is 50 μm and the high power calibration bar in the inset in FIG. 8C is 25 μm. […] It is noted that there is a progressive reduction of VGSC labeling but not in the number of cells that express the highest levels of VGSC. […] The decrease in expression of VGSC is likely to contribute in the reduced efficacy of TOL when used concurrently with paclitaxel.

[2] = test system: 4T1 murine breast cancer cells; experiment: Ectopic 4T1 homografts in BALBc mice: tumor size and survival after TOL; format: in vivo, mouse; settings: paclitaxel 20 mg/kg i.p. post-inoculation day 5; TOL: digoxin 3 mg/kg x8 + 4x30 min PEF 18 V/m on 2 successive days; n=12; FIG. 7
Protocol: FIG. 4 illustrates the average size of 4T1 homographs seen before and after each single treatment with TOL in which the duration of each of four exposures to PEFs of 18 V/m varied from 5-60 minutes (n=15). […] Further increase in stimulation duration had less of an effect on tumor reduction. Optimum tumor reduction is observed when the mice are exposed to a PEF for 30 minutes, or a range of exceeding 15 minutes and less than 60 minutes.
FIG. 6 depicts in vivo validation of the therapeutic efficacy of pulsed electric fields (PEFs) inducing osmotic lysis in a breast cancer mouse model. Ectopic homografts of 4T1 murine breast cancer cells were established in female, immune competent BALBc mice (n=12). The “TOL” group was injected with digoxin (7 mg/kg) and then exposed to the PEFs generated by a ring device. […] Tumor size was measured daily, beginning on Day 0 (first day of treatment) and every other day after Day 3 until NIH humane endpoint criteria were met for euthanasia.
FIG. 7 depicts in vivo validation of the therapeutic efficacy of pulsed electric fields (PEFs) inducing osmotic lysis in comparison to paclitaxel in a breast cancer mouse model. […] Homografts were measured on post-inoculation day 6 (treatment day 0), and again on post-treatment days 1 and 2 and then every other day until the criteria for humane endpoint euthanasia was met. […]

## CC(=O)O[C@H]1C(=O)[C@@]2(C)[C@H]([C@H](OC(=O)c3ccccc3)[C@]3(O)C[C@H](OC(=O)[C@H](O)[C@@H](NC(=O)c4ccccc4)c4ccccc4)C(C)=C1C3(C)C)[C@]1(OC(C)=O)CO[C@@H]1C[C@@H]2O [paclitaxel]
[1]
  VGSC expression: decreases significantly and progressively
[2]
  time from inoculation to humane endpoint euthanasia (survival): no significant effect on survival over controls
